Test results from US10010539B2, “Pyrazole, triazole and tetrazole orexin receptor antagonists” (MERCK SHARP & DOHME CORP., priority 2014, dated 2018).

Experiments:
[1] = biological target: hOXIR (orexin-1 receptor) (Homo sapiens, UniProt O43613); assay: FLIPR Ca2+ Flux Assay, orexin-1 receptor (hOXIR FLIPR); type: cell-based; settings: CHO cells expressing the orexin-1 receptor (method text: rat; table head: hOXIR); agonist 70 pM Ala-6,12 human orexin-A
Experimental: (§1) The utility of the compounds in accordance with the present invention as orexin receptor OX1R and/or OX2R antagonists may be readily determined without undue experimentation by methodology well known in the art, including the “FLIPR Ca^2+ Flux Assay” (Okumura et al., Biochem. Biophys. Res. Comm. 280:976-981, 2001). In a typical experiment the OX1 and OX2 receptor antagonistic activity of the compounds of the present invention was determined in accordance with the following experimental method. For intracellular calcium measurements, Chinese hamster ovary (CHO) cells expressing the rat orexin-1 receptor or the human orexin-2 receptor, are grown in Iscove's modified DMEM containing 2 mM L-glutamine, […], 1% hypoxanthine-thymidine supplement, 100 U/ml penicillin, 100 μg/ml streptomycin and 10% heat-inactivated fetal calf serum (FCS). The cells are seeded at 20,000 cells/well into Becton-Dickinson black 384-well clear bottom sterile plates coated with poly-D-lysine. All reagents were from GIBCO-Invitrogen Corp. The seeded plates are incubated overnight at 37° C. and 5% CO2. Ala-6,12 human orexin-A as the agonist is prepared as a 1 mM stock solution in 1% bovine serum albumin (BSA) and diluted in assay buffer (HBSS containing 20 mM HEPES, 0.1% BSA and 2.5 mM probenecid, pH7.4) for use in the assay at a final concentration of 70 pM. Test compounds are prepared as 10 mM stock solution in DMSO, then diluted in 384-well plates, first in DMSO, then assay buffer. On the day of the assay, cells are washed 3 times with 100 μl assay buffer and then incubated for 60 min (37° C., 5% CO2) in 60 μl assay buffer containing 1 μM Fluo-4AM ester, 0.02% pluronic acid, and 1% BSA. The dye loading solution is then aspirated and cells are washed 3 times with 100 μl assay buffer. 30 μl of that same buffer is left in each well. Within the Fluorescent Imaging Plate Reader (FLIPR, Molecular Devices), test compounds are added to the plate in a volume of 25 μl, incubated for 5 min and finally 25 μl of agonist is added. Fluorescence is measured for each well at 1 second intervals for 5 minutes and the height of each fluorescence peak is compared to the height of the fluorescence peak induced by 70 pM Ala-6,12 orexin-A with buffer in place of antagonist. For each antagonist, IC50 value (the concentration of compound needed to inhibit 50% of the agonist response) is determined. Alternatively, compound potency can be assessed by a radioligand binding assay (described in Bergman et. al. Bioorg. Med. Chem. Lett. 2008, 18, 1425-1430) in which the inhibition constant (Ki) is determined in membranes prepared from CHO cells expressing either the OX1 or OX2 receptor. The intrinsic orexin receptor antagonist activity of a compound which may be used in the present invention may be determined by these assays.

[2] = biological target: human orexin-2 receptor (Homo sapiens (Human), UniProt O43614); assay: FLIPR Ca2+ Flux Assay, orexin-2 receptor (hOX2R FLIPR); type: cell-based; settings: CHO cells expressing the human orexin-2 receptor; agonist 70 pM Ala-6,12 human orexin-A
Experimental: as §1

Sequence of human orexin-2 receptor (O43614 whole entry): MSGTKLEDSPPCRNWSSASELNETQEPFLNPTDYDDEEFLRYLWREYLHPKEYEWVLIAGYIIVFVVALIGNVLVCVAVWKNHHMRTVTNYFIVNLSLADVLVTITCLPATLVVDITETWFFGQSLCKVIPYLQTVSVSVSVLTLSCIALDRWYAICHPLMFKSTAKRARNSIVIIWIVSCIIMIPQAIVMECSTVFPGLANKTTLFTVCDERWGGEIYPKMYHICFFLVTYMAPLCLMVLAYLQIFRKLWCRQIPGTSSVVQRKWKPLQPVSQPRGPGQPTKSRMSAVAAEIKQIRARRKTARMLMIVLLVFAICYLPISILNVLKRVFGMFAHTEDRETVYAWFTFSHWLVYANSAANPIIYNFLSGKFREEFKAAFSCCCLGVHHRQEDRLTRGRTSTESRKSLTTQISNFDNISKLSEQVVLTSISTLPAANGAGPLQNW

SMILES	IC50 [1]	IC50 [2]
C[C@@H]1CC[C@@H](n2cc(C(C)(C)O)cn2)CN1C(=O)c1ccccc1C1CCC1 [Example 87, 2-(1-{(3R,6R)-1-[(2-Cyclobutylphenyl)carbonyl]-6-methylpiperidin-3-yl}-1H-pyrazol-4-yl)propan-2-ol]	3290 nM	49.3 nM
CC(C)Oc1ccccc1C(=O)N1C[C@H](n2ncc(C(C)(C)O)n2)CC[C@H]1C [Example 17, ((2R,5R)-5-(4-(2-Hydroxypropan-2-yl)-2H-1,2,3-triazol-2-yl)-2-methylpiperidin-1-yl)(2-isopropoxyphenyl)methanone]	3680 nM	16.1 nM
C[C@@H]1CC[C@@H](n2ncc(C(C)(C)O)n2)CN1C(=O)c1cccc2ccnn12 [Example 57, 2-{2-[(3R,6R)-6-Methyl-1-(pyrazolo[1,5-a]pyridin-7-ylcarbonyl)piperidin-3-yl]-2H-1,2,3-triazol-4-yl}propan-2-ol]	> 10000 nM	489 nM
COC(=O)c1cnn([C@@H]2CC[C@@H](C)N(C(=O)c3ccccc3-n3nccn3)C2)n1 [Example 24, Methyl 2-((3R,6R)-1-(2-(2H-1,2,3-triazol-2-yl)benzoyl)-6-methylpiperidin-3-yl)-2H-1,2,3-triazole-4-carboxylate]	> 10000 nM	512 nM
COc1ccc(C(=O)N2C[C@H](n3cc(C(C)(C)O)cn3)CC[C@H]2C)c(C2CCC2)n1 [Example 100, 2-(1-{(3R,6R)-1-[(2-Cyclobutyl-6-methoxypyridin-3-yl)carbonyl]-6-methylpiperidin-3-yl}-1H-pyrazol-4-yl)propan-2-ol]	> 10000 nM	60.8 nM
COC(=O)c1ccccc1C(=O)N1C[C@H](n2ncc(C(C)(C)O)n2)CC[C@H]1C [Example 20, Methyl 2-((2R,5R)-5-(4-(2-hydroxypropan-2-yl)-2H-1,2,3-triazol-2-yl)-2-methylpiperidine-1-carbonyl)benzoate]	> 10000 nM	24.6 nM
CCOc1ncccc1C(=O)N1C[C@H](n2cc(C(C)(C)O)cn2)CC[C@H]1C [Example 89, 2-(1-{(3R,6R)-1-[(2-Ethoxypyridin-3-yl)carbonyl]-6-methylpiperidin-3-yl}-1H-pyrazol-4-yl)propan-2-ol]	> 10000 nM	283 nM
C[C@@H]1CC[C@@H](n2cc([C@@](C)(O)C(F)(F)F)cn2)CN1C(=O)c1ccccc1-n1nccn1 [Example 105, (2R)-1,1,1-Trifluoro-2-{1-[(3R,6R)-6-methyl-1-{[2-(2H-1,2,3-triazol-2-yl)phenyl]carbonyl}piperidin-3-yl]-1H-pyrazol-4-yl}propan-2-ol]	2730 nM	9.4 nM
Cc1ccc(-n2nccn2)c(C(=O)N2C[C@H](n3ncc(C(C)(C)O)n3)CC[C@H]2C)c1 [Example 52, 2-{2-[(3R,6R)-6-methyl-1-{[5-methyl-2-(2H-1,2,3-triazol-2-yl)phenyl]carbonyl}piperidin-3-yl]-2H-1,2,3-triazol-4-yl}propan-2-ol]	3090 nM	59.8 nM
Cc1nn([C@@H]2CC[C@@H](C)N(C(=O)c3ccccc3C3CC3)C2)nc1C(C)(C)O [Example 70, 2-(2-{(3R,6R)-1-[(2-Cyclopropylphenyl)carbonyl]-6-methylpiperidin-3-yl}-5-methyl-2H-1,2,3-triazol-4-yl)propan-2-ol]	760 nM	8.8 nM
C[C@@H]1CC[C@@H](n2ncc(C(C)(C)O)n2)CN1C(=O)c1sccc1-n1nccn1 [Example 32, 2-{2-[(3R,6R)-6-methyl-1-{[3-(2H-1,2,3-triazol-2-yl)thiophen-2-yl]carbonyl}piperidin-3-yl]-2H-1,2,3-triazol-4-yl}propan-2-ol]	> 10000 nM	89.6 nM
Cc1nn([C@@H]2CC[C@@H](C)N(C(=O)c3ccccc3-n3nccn3)C2)cc1C(C)(C)O [Example 107, 2-{3-Methyl-1-[(3R,6R)-6-methyl-1-{[2-(2H-1,2,3-triazol-2-yl)phenyl]carbonyl}piperidin-3-yl]-1H-pyrazol-4-yl}propan-2-ol]	339 nM	13.8 nM
C[C@@H]1CC[C@@H](n2ncc(C(C)(C)O)n2)CN1C(=O)c1ccccc1CC(F)(F)F [Example 9, ((2R,5R)-5-(4-(2-Hydroxypropan-2-yl)-2H-1,2,3-triazol-2-yl)-2-methylpiperidin-1-yl)(2-(2,2,2-trifluoroethyl)phenyl)methanone]	> 10000 nM	30 nM
C[C@@H]1CC[C@@H](n2ncc(C(C)(C)O)n2)CN1C(=O)c1cccnc1OCC(F)(F)F [Example 14, ((2R,5R)-5-(4-(2-Hydroxypropan-2-yl)-2H-1,2,3-triazol-2-yl)-2-methylpiperidin-1-yl)(2-(2,2,2-trifluoroethoxy)pyridin-3-yl)methanone]	8790 nM	15.9 nM
C[C@@H]1CC[C@@H](n2cc(C(C)(C)O)cn2)CN1C(=O)c1ccccc1OC(F)F [Example 84, 2-{1-[(3R,6R)-1-{[2-(Difluoromethoxy)phenyl]carbonyl}-6-methylpiperidin-3-yl]-1H-pyrazol-4-yl}propan-2-ol]	> 10000 nM	464 nM
C[C@@H]1CC[C@@H](n2ncc(C(C)(C)O)n2)CN1C(=O)c1ccccc1N1CCCC1 [Example 49, 2-(2-{(3R,6R)-6-methyl-1-[(2-pyrrolidin-1-ylphenyl)carbonyl]piperidin-3-yl}-2H-1,2,3-triazol-4-yl)propan-2-ol]	2830 nM	29.1 nM
Cc1nn([C@@H]2CC[C@@H](C)N(C(=O)c3ccccc3OC(F)F)C2)nc1C(C)(C)O [Example 66, 2-{2-[(3R,6R)-1-{[2-(Difluoromethoxy)phenyl]carbonyl}-6-methylpiperidin-3-yl]-5-methyl-2H-1,2,3-triazol-4-yl}propan-2-ol]	3060 nM	9.6 nM
Cc1c(C(C)(C)O)cnn1[C@@H]1CC[C@@H](C)N(C(=O)c2ccccc2-n2nccn2)C1 [Example 108, 2-{5-Methyl-1-[(3R,6R)-6-methyl-1-{[2-(2H-1,2,3-triazol-2-yl)phenyl]carbonyl}piperidin-3-yl]-1H-pyrazol-4-yl}propan-2-ol]	3370 nM	73.2 nM
C[C@@H]1CC[C@@H](n2cc(C(C)(C)O)cn2)CN1C(=O)c1cccnc1OCC(F)F [Example 98, 2-{1-[(3R,6R)-1-{[2-(2,2-Difluoroethoxy)pyridin-3-yl]carbonyl}-6-methylpiperidin-3-yl]-1H-pyrazol-4-yl}propan-2-ol]	> 10000 nM	58.8 nM
C[C@@H]1CC[C@@H](n2ncc(C(C)(C)O)n2)CN1C(=O)c1ccccc1SC(F)(F)F [Example 11, 2-{2-[(3R,6R)-6-Methyl-1-({2-[(trifluoromethyl)sulfanyl]pheny}carbonyl)piperidin-3-yl]-2H-1,2,3-triazol-4-yl}propan-2-ol]	2550 nM	20 nM
Cc1nn([C@@H]2CC[C@@H](C)N(C(=O)c3ccccc3-n3nccn3)C2)nc1C(C)(C)O [Example 62, 2-{5-Methyl-2-[(3R,6R)-6-methyl-1-{[2-(2H-1,2,3-triazol-2-yl)phenyl]carbonyl}piperidin-3-yl]-2H-1,2,3-triazol-4-yl}propan-2-ol]	1250 nM	12.5 nM
COCCc1ccccc1C(=O)N1C[C@H](n2ncc(C(C)(C)O)n2)CC[C@H]1C [Example 44, 2-{2-[(3R,6R)-1-{[2-(2-methoxyethyl)phenyl]carbonyl}-6-methylpiperidin-3-yl]-2H-1,2,3-triazol-4-yl}propan-2-ol]	> 10000 nM	897 nM
CCCc1ccccc1C(=O)N1C[C@H](n2cc(C(C)(C)O)cn2)CC[C@H]1C [Example 76, 2-(1-{(3R,6R)-6-Methyl-1-[(2-propylphenyl)carbonyl]piperidin-3-yl}-1H-pyrazol-4-yl)propan-2-ol]	> 10000 nM	52.3 nM
C[C@@H]1CC[C@@H](n2ncc(C(C)(C)O)n2)CN1C(=O)c1ccccc1C1(C#N)CC1 [Example 1, 1-(2-((2R,5R)-5-(4-(2-Hydroxypropan-2-yl)-2H-1,2,3-triazol-2-yl)-2-methylpiperidine-1-carbonyl)phenyl)cyclopropanecarbonitrile]	1160 nM	13.8 nM
